Test results taken from US20250171437A1 (Agios Pharmaceuticals,Inc., priority 2022, published 2025).

Biological target: T1, human PAH with the R408W mutation (A375 R408W cells) (Homo sapiens, UniProt P00439, R408W)
T1 construct: expressed in transfected cells
T1 sequence (P00439 1-452 R408W): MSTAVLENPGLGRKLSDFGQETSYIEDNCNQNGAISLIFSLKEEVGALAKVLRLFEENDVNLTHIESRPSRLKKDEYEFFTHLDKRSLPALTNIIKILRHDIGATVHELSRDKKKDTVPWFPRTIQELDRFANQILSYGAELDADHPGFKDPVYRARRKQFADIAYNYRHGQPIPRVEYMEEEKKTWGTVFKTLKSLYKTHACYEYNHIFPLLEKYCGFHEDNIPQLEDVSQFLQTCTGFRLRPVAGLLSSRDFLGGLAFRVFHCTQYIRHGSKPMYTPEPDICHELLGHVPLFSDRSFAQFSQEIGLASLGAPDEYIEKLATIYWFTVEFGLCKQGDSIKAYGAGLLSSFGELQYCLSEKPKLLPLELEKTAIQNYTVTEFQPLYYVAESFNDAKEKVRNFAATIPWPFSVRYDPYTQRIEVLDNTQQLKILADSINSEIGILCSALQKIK
Assay: Cell Based Phenylalanine Flux Assay
Conditions: A375 R408W cells; 24 hrs with compound, then 20 μM sepiapterin and 800 μM 13C9,15N-Phenylalanine for 4 hours; 13C-Tyrosine by LC-MS; average where tested multiple times
How it was run: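 Puromycin-selected A375 line, lentiviral hPAH R408W; cmpd 24 h, 37 °C, 5% CO2, 0.5% DMSO; then 20 μM sepiapterin + 800 μM 13C9,15N-Phe, 4 h; media extracted in 80% MeCN; 13C-Tyr by LC-MS; AC50 from 10-pt curves.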

`Cc1ccc2oc([C@H]3c4nc[nH]c4CCN3C(=O)c3nnc(-c4cn[nH]c4)o3)nc2c1` [Example 492, (R)-(5-(1H-pyrazol-4-yl)-1,3,4-oxadiazol-2-yl)(4-(5-methylbenzo[d]oxazol-2-yl)-6,7-dihydro-1H-imidazo[4,5-c]pyridin-5(4H)-yl)methanone] and `Cc1ccc2nc([C@H]3c4nc[nH]c4CCN3C(=O)c3nnc(-c4cnn(C)c4)o3)oc2c1` [Example 104, (R)-(5-(1-methyl-1H-pyrazol-4-yl)-1,3,4-oxadiazol-2-yl)(4-(6-methylbenzo[d]oxazol-2-yl)-6,7-dihydro-1H-imidazo[4,5-c]pyridin-5(4H)-yl)methanone] cannot be ordered by AC50: 1000 to 5000 nM for the first, at least 5000 nM for the second.

First: O=C(c1ocnc1C(F)(F)F)N1Cc2[nH]cnc2[C@H]1c1nc2ccccc2o1 [Example 944, (S)-(4-(benzo[d]oxazol-2-yl)-4,6-dihydropyrrolo[3,4-d]imidazol-5(1H)-yl)(4-(trifluoromethyl)oxazol-5-yl)methanone]
Second: O=C(c1ocnc1C(F)F)N1CCc2[nH]cnc2[C@H]1c1nc2cccc(OC(F)(F)F)c2o1 [Example 532, (S)-(4-(difluoromethyl)oxazol-5-yl)(4-(7-(trifluoromethoxy)benzo[d]oxazol-2-yl)-6,7-dihydro-1H-imidazo[4,5-c]pyridin-5(4H)-yl)methanone]
The AC50 of the first is higher: 1000 to 5000 nM for the first, at most 500 nM for the second.

`Cc1ccc2nc([C@H]3c4nc[nH]c4CCN3C(=O)c3nnc(-c4cnn(C(F)F)c4)o3)oc2c1` [Example 682, (R)-(5-(1-(difluoromethyl)-1H-pyrazol-4-yl)-1,3,4-oxadiazol-2-yl)(4-(6-methylbenzo[d]oxazol-2-yl)-6,7-dihydro-1H-imidazo[4,5-c]pyridin-5(4H)-yl)methanone] and `COc1cccc2oc([C@H]3c4nc[nH]c4CCN3C(=O)c3nnc(-c4cnn(C)c4)o3)nc12` [Example 625, (R)-(4-(4-methoxybenzo[d]oxazol-2-yl)-6,7-dihydro-1H-imidazo[4,5-c]pyridin-5(4H)-yl)(5-(1-methyl-1H-pyrazol-4-yl)-1,3,4-oxadiazol-2-yl)methanone] cannot be ordered by AC50: at least 5000 nM for the first, 1000 to 5000 nM for the second.

Compared with `CC(C)(C)c1nc(C(F)F)c(C(=O)N2CCc3[nH]cnc3[C@@H]2c2nc3cc(F)ccc3o2)o1` [Example 754, (R)-(2-(tert-butyl)-4-(difluoromethyl)oxazol-5-yl)(4-(5-fluorobenzo[d]oxazol-2-yl)-6,7-dihydro-1H-imidazo[4,5-c]pyridin-5(4H)-yl)methanone], `CC(C)(O)c1nc(C(F)(F)F)c(C(=O)N2CCc3[nH]cnc3[C@@H]2c2nc3cc(F)ccc3o2)o1` [Example 46, (R)-(4-(5-fluorobenzo[d]oxazol-2-yl)-6,7-dihydro-1H-imidazo[4,5-c]pyridin-5(4H)-yl)(2-(2-hydroxypropan-2-yl)-4-(trifluoromethyl)oxazol-5-yl)methanone] is lower in AC50: 1000 to 5000 nM for the first, at most 500 nM for the second.

`CC(C)(O)c1nc(C(F)F)c(C(=O)N2CCc3[nH]cnc3[C@H]2c2nc3c(F)cccc3o2)o1` [Example 199, (S)-(4-(difluoromethyl)-2-(2-hydroxypropan-2-yl)oxazol-5-yl)(4-(4-fluorobenzo[d]oxazol-2-yl)-6,7-dihydro-1H-imidazo[4,5-c]pyridin-5(4H)-yl)methanone] and `COc1cc(F)c2oc([C@H]3c4nc[nH]c4CCN3C(=O)c3oc(C(C)(C)O)nc3C(F)F)nc2c1` [Example 644, (R)-(4-(difluoromethyl)-2-(2-hydroxypropan-2-yl)oxazol-5-yl)(4-(7-fluoro-5-methoxybenzo[d]oxazol-2-yl)-6,7-dihydro-1H-imidazo[4,5-c]pyridin-5(4H)-yl)methanone] cannot be ordered by AC50: at most 500 nM for the first, at most 500 nM for the second.

`O=C(c1oc(-c2ccccn2)nc1C1CC1)N1CCc2[nH]cnc2[C@H]1c1nc2cc(F)ccc2o1` [Example 43, (S)-(4-cyclopropyl-2-(pyridin-2-yl)oxazol-5-yl)(4-(5-fluorobenzo[d]oxazol-2-yl)-6,7-dihydro-1H-imidazo[4,5-c]pyridin-5(4H)-yl)methanone] and `O=C(c1oc(-c2ccccn2)nc1C(F)F)N1CCc2[nH]cnc2[C@@H]1c1nc2cccc(F)c2o1` [Example 588, (R)-(4-(difluoromethyl)-2-(pyridin-2-yl)oxazol-5-yl)(4-(7-fluorobenzo[d]oxazol-2-yl)-6,7-dihydro-1H-imidazo[4,5-c]pyridin-5(4H)-yl)methanone] cannot be ordered by AC50: at most 500 nM for the first, at most 500 nM for the second.

`CN1CCN(c2ccc3c(C(=O)N4CCc5[nH]cnc5[C@@H]4c4nc5c(F)cccc5o4)cnn3c2)CC1` [Example 476, (R)-(4-(4-fluorobenzo[d]oxazol-2-yl)-6,7-dihydro-1H-imidazo[4,5-c]pyridin-5(4H)-yl)(6-(4-methylpiperazin-1-yl)pyrazolo[1,5-a]pyridin-3-yl)methanone] and `O=C(c1ccnn1CC(F)F)N1CCc2[nH]cnc2[C@H]1c1nc2c(F)cccc2o1` [Example 850, (S)-(1-(2,2-difluoroethyl)-1H-pyrazol-5-yl)(4-(4-fluorobenzo[d]oxazol-2-yl)-6,7-dihydro-1H-imidazo[4,5-c]pyridin-5(4H)-yl)methanone] fall in the same range of AC50: 1000 to 5000 nM for the first, 1000 to 5000 nM for the second.

`Cc1ncoc1C(=O)N1CCc2[nH]cnc2[C@@H]1c1nc2ccc(F)cc2o1` [Example 598, (R)-(4-(6-fluorobenzo[d]oxazol-2-yl)-6,7-dihydro-1H-imidazo[4,5-c]pyridin-5(4H)-yl)(4-methyloxazol-5-yl)methanone] and `O=C(c1ocnc1C(F)F)N1CCc2[nH]cnc2[C@@H]1c1nc2ccc(F)cc2o1` [Example 164, (R)-(4-(difluoromethyl)oxazol-5-yl)(4-(6-fluorobenzo[d]oxazol-2-yl)-6,7-dihydro-1H-imidazo[4,5-c]pyridin-5(4H)-yl)methanone] fall in the same range of AC50: 1000 to 5000 nM for the first, 1000 to 5000 nM for the second.

`Cc1cccc2oc([C@@H]3c4nc[nH]c4CCN3C(=O)c3cnco3)nc12` [Example 509, (S)-(4-(4-methylbenzo[d]oxazol-2-yl)-6,7-dihydro-1H-imidazo[4,5-c]pyridin-5(4H)-yl)(oxazol-5-yl)methanone] and `COc1cccc2oc([C@@H]3c4nc[nH]c4CCN3C(=O)c3nnc(-c4ccccn4)o3)nc12` [Example 624, (S)-(4-(4-methoxybenzo[d]oxazol-2-yl)-6,7-dihydro-1H-imidazo[4,5-c]pyridin-5(4H)-yl)(5-(pyridin-2-yl)-1,3,4-oxadiazol-2-yl)methanone] cannot be ordered by AC50: at most 500 nM for the first, at most 500 nM for the second.

Compound `COc1cc(F)c2oc([C@@H]3c4nc[nH]c4CCN3C(=O)c3oc(C(C)(C)O)nc3C(F)F)nc2c1` [Example 643, (S)-(4-(difluoromethyl)-2-(2-hydroxypropan-2-yl)oxazol-5-yl)(4-(7-fluoro-5-methoxybenzo[d]oxazol-2-yl)-6,7-dihydro-1H-imidazo[4,5-c]pyridin-5(4H)-yl)methanone] has an AC50 of at most 500 nM.

Same assay, conditions: A375 cells expressing R408W PAH; 24 hrs with compound, then 20 μM sepiapterin and 800 μM 13C9,15N-Phenylalanine for 4 hours; 13C-Tyrosine by LC-MS; average where tested multiple times

`O=C(c1nnc(-c2cnn(CC(F)F)c2)o1)N1CCc2[nH]cnc2C1c1nc2cc(F)ccc2o1` (stereo not drawn) and `O=C(c1cn[nH]c1C(F)F)N1CCc2[nH]cnc2C1c1nc2cc(F)ccc2o1` (stereo not drawn) fall in the same range of AC50: 1000 to 5000 nM for the first, 1000 to 5000 nM for the second.

`O=C(CCc1nccs1)N1CCc2[nH]cnc2C1c1nc2ccc(F)cc2o1` (stereo not drawn) and `O=C(CCc1cncs1)N1CCc2[nH]cnc2C1c1nc2cc(F)ccc2o1` (stereo not drawn) fall in the same range of AC50: 1000 to 5000 nM for the first, 1000 to 5000 nM for the second.

`O=C(c1ccn(-c2ccccn2)n1)N1CCc2[nH]cnc2C1c1nc2ccccc2o1` (stereo not drawn) showed an AC50 of at least 5000 nM.
